{"source": "patent US20150157604A1", "about": "“PHARMACEUTICAL COMPOSITION FOR THE PROPHYLAXIS AND TREATMENT OF PSYCHOLOGICAL, BEHAVIORAL AND COGNITIVE DISORDERS” (LTD << VALENTA-INTELLEKT >>, priority 2012, published 2015)", "key": {"cerebral edema": {"system": "cerebral edema", "conditions": "rats; second administration; cited from earlier work"}, "[1]": {"system": "patients with mixed dementia and patients with Alzheimer's disease", "assay": "Study of pharmacological activity: half-year neurological study (MMSE, visual and aural-speech memory, clock drawing test, Schulte Table)", "assay_type": "in vivo, human", "source_text": "The subjects under the study have been 25 patients with mixed dementia and 12 patients with Alzheimer's disease. The average age of the patients is 70±3 years. Dementia has been diagnosed in accordance with the dementia criteria under ICD-10 [International statistic classification of diseases and problems relating to health. Tenth revision (ICD-10). V.1 (Part 1). Geneva: WHO, 1995; p. 315, 510-1]. Dimentia severity has been assessed according to Clinical Dementia Rating Scale—CDR [Hughes C P, Berg L, Danziger W L et al. A new clinical scale for the staging of dementia. Brit J Psychiatry 1982; 140: 566-72]. In the group of patients with mixed dementia it is 1.2±0.3, and in the group with Alzheimer's disease—1.1±0.36. All the patients have been subdivided into two groups. The first group has received […] of memantine once a day. The second group received capsules according to Example 4. A complex neurological study has been conducted with the patients for half a year, the study included brief evaluation of mental status (MMSE), a test for visual and aural-speech memory under the dementia scale, the clock drawing test as well as the test for attention—Schulte Table. The outcome has been processed with the use of the statistical package for social sciences (SPSS), Version 10.0."}, "[2]": {"conditions": "cited from earlier work"}, "[3]": {"system": "dopamine concentration in the forebrain regions", "conditions": "cited from earlier work"}}}
{"molecule": "COc1ccc2[nH]cc(CCNC(C)=O)c2c1", "note": "[melatonin, N-acetyl-5-methoxytriptamine]", "values": [{"measurement": "reduction of the volume of cerebral edema", "setting": "cerebral edema", "result": 2, "unit": "times"}]}
{"molecule": "CC12CC3CC(C)(C1)CC(N)(C3)C2", "note": "[memantine, 1-amino-3,5-dimethyladamantan]", "values": [{"measurement": "increase of clock drawing test", "setting": "[1]; in 6 months", "result": "0.2±0.1"}, {"measurement": "increase of total score of the mental status evaluation (MMSE)", "setting": "[1]; in 6 months, patients with mixed dementia or Alzheimer's disease", "result": "1.5±0.3"}, {"measurement": "lowering of Schulte test", "setting": "[1]; in 6 months, test for attention", "result": "20.5±3.6"}, {"measurement": "increase of visual memory", "setting": "[1]; in 6 months, test under the dementia scale", "result": "0.5±0.2"}, {"measurement": "patients with positive therapeutic effect", "setting": "[1]; patients with Alzheimer's disease", "result": 25, "unit": "%"}, {"measurement": "patients with positive therapeutic effect", "setting": "[1]; patients with mixed dementia", "result": 86, "unit": "%"}, {"measurement": "side effects", "setting": "[1]; patients, half-year study", "result": "increase in the intracranial pressure was observed"}, {"measurement": "time to concentration peak in the brain", "setting": "[2]; after a single dosing", "result": "one"}, {"measurement": "half-life", "setting": "[2]; in vivo", "result": "approximately 100 hours"}, {"measurement": "dopamine concentration", "setting": "[3]; after a single dosing", "result": "remains unchanged"}, {"measurement": "rise of dopamine concentration in the forebrain regions", "setting": "[3]; during prolonged administration", "result": "≥ 10", "unit": "times"}]}
